Test results reported in patent US10617735B2, “Methods and compositions for preserving retinal ganglion cells” (Massachusetts Eye and Ear Infirmary, priority 2010, dated 2020).
Where a SMILES comes first, the peptide text is derived from it. The star is where a group is joined. Cbz = O=C(OCc1ccccc1)*; CH2F = FC*

How the values were obtained:
Format in all cases: in vivo, mouse
[1] = test system: retinal ganglion cell axons; assay: Optic nerve crush model: axon regeneration (βIII-tubulin staining of longitudinal optic nerve sections); settings: 14 days, intravitreal ZVAD 300 μM and/or Nec-1 4 mM
Protocol: Mice were subjected to optic nerve crush surgery. Specifically, animals were anesthetized with an intraperitoneal injection of ketamine (60-80 mg/kg: Phoenix Pharmaceutical, St. Joseph, Mo.) and xylazine (10-15 mg/kg: Bayer, Shawnee Mission, K A). Animals were positioned in a stereotaxic apparatus and a 1-1.5 cm incision was made in the skin above the right orbit. Under microscopic illumination, the lachrymal glands and extraocular muscles were resected to expose 3-4 mm of the optic nerve. The epineurium was slit open along the long axis, and the nerve was crushed 2 mm behind the eye with angled jeweler's forceps (Dumont #5) for 10 seconds, avoiding injury to the ophthalmic artery. Nerve injury was verified by the appearance of a clearing at the crush site, while the vascular integrity of the retina was evaluated by fundoscopic examination. Cases in which the vascular integrity of the retina was in question were excluded from the study. […]
Axon regeneration was assessed by obtaining longitudinal sections of the optic nerve and counting the number of axons at pre-specified distances from the injury site. […] Axons were counted manually in at least eight longitudinal sections per case at pre-specified distances from the injury site. The number of regenerating axons at various distances are determined as described previously (Leon et al., (2000) J NEUROSCI 20:4615-4626). […]

[2] = test system: LC3-II; assay: LC3 protein level after ON injury (western blot); settings: one day after ON injury
Protocol: For Western blot analysis, whole retinas were harvested and lysed for 30 min on ice in lysis buffer (50 mM Tris-HCl [pH 8], with 120 mM NaCl and 1% Nonidet P-40), supplemented with a mixture of proteinase inhibitors (Complete Mini; Roche Diagnostics, Basel, Switzerland). Thirty micrograms of protein per sample were separated in a 4-20% gradient sodium dodecyl sulfate-polyacrylamide gel (SDS-PAGE) (Invitrogen Corporation, Carlsbad, Calif., USA) electrophoresis and the proteins were electroblotted onto PVDF membranes. After 20 min incubation in blocking solution (Starting Block™ T20, Thermo Scientific, Waltham, Mass.), membranes were incubated with primary antibodies overnight at 4° C. Peroxidase-labeled secondary antibodies (Amersham Pharmacia Biotech, Piscataway, N.J., USA) were used and proteins were visualized with enhanced chemiluminescence technique (Amersham Pharmacia Biotech). Full list of primary antibodies and working concentrations are shown below in Table 2.
Protein levels of LC3, an autophagy marker, were also assessed by western blot analysis.

[3] = test system: Apoptosis inducing factor (AIF); assay: AIF immunostaining with TUNEL after ON injury (nuclear translocation); settings: one day after ON injury
Protocol: Apoptosis inducing factor (AIF) is a mitochondrial flavoprotein which is involved in initiating caspase-independent apoptosis. After loss of mitochondrial membrane potential, AIF translocates into the nucleus, induces DNA fragmentation and peripheral chromatin condensation (Susin et al., (1999), Susin et al., (2000), Candé et al., (2004)). To analyze whether mitochondrial release of AIF is associated with RGC death after ON injury, immunostaining for AIF was performed together with TUNEL assay. One day after ON injury, there was a prominent nuclear translocation of AIF, which was not affected by pan-caspase inhibition (FIGS. 7A and 7B).

[4] = test system: retinal ganglion cells (RGCs); assay: Brn3b immunohistochemistry (viable RGCs) after ON injury; settings: RIP3−/− mice; seven days after ON injury
Text: Two mouse models of RGC death were utilized: optic nerve (ON) injury and N-methyl-D-aspartate (NMDA) retinal excitotoxicity. ON injury leads to RGC death as a result of primary damage to the axons, with its ensuing disruption of retrograde axonal transport (Libby et al., (2005) PLOS GENET 1:17-26) and is used as an RGC death model. In the ON injury model, mice were anesthetized and subjected to severe crush injury at 1-2 mm distance from the eyeball for 15 seconds using cross-action forceps taking special care not to interfere with the blood supply (Levkovitch-Verbin, (2004) EYE 18:1066-1074). Injured mice were randomly divided into 4 groups for treatment: vehicle group (0.5% DMSO and 0.8% cyclodextrin in PBS, n=6), ZVAD group (300 n=6), Nec-1 group (4 mM, n=6), and ZVAD plus Nec-1 group (n=6). Soon after injury, each group received an intravitreal injection (2 μl) with the respective compounds. In the NMDA retinal excitotoxicity model, NMDA (2 μl of a 0.1M stock; Sigma-Aldrich) was injected intravitreously in combination with ZVAD, Nec-1, or ZVAD plus Nec-1 and mice were separated into the aforementioned 4 groups. […]

## COC(=O)CC(NC(=O)C(C)NC(=O)C(NC(=O)OCc1ccccc1)C(C)C)C(=O)CF (stereo not drawn) [Z-VAD, Benzyloxycarbonyl-Val-Ala-Asp(OMe)-fluoromethylketone] (Cbz-Val-Ala-Asp(OMe)-CH2F; configuration not given here)
[1]
  axon regeneration (βIII-tubulin axon staining beyond injury site): minimal effects on axon regeneration
[2]
  protein level of LC3-II: increased more than vehicle
[3]
  nuclear translocation of AIF: not affected
[4]
  number of Brn3b positive cells: further enhanced
